Measured values: patent publication US5045566A, “Novel imidate insecticides” (ICI Americas Inc., priority 1989, dated 1991)

How the values were obtained:
Assay type in all cases: in vivo
[1] = test system: Housefly [Musca domestica]; experiment: Housefly contact mortality in dishes (HF), 48 hours; details: μg of test compound per 25 female flies
In short: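 Dry-film exposure of 25 female houseflies per cage, 48 h; LC50 as μg per 25 flies.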

[2] = test system: Black Bean Aphid [Aphis fabae (Scop.)]; experiment: Black bean aphid spray test on nasturtium (BBA), 48 hours; details: percent of test compound in sprayed solution
In short: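 LC50, given as percent test compound in the sprayed liquid, was calculated from dosage-mortality curves using concentrations from 0.05% downward. Sprays in 50:50 acetone-water went to runoff on ~5 cm nasturtiums carrying 25-50 aphids of mixed ages, one day after infestation. Deaths were counted 48 h later under greenhouse conditions.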

[3] = test system: Tobacco Budworm [Heliothis virescens (Fabricius)] eggs; experiment: Tobacco budworm eggs (TBW-E); details: percent in solution; 2-day old eggs
In short: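 Paper towel patches bearing 2-day old eggs were dipped in acetone solutions of compound, then set in petri dishes over larval rearing medium at 78° F. Mortality was scored once all control eggs had hatched and larvae were feeding. LC50, from dosage-mortality curves, is given as percent compound in solution.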

[4] = test system: Cabbage Looper [Trichoplusia ni (Hubner)]; experiment: Cabbage looper leaf dip (CL), 3-5 days; details: percent in solution, second-instar larvae
In short: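 Compounds in 50-50 acetone-water were applied by dipping squash cotyledons (about 1×1.5 in) for 2-3 s; dried leaves went into petri dishes on moist filter paper with 5 second-instar larvae under high humidity. Mortality was scored after 3-5 days; LC50 from dosage-mortality curves, as percent compound in solution.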

[5] = test system: Maize weevil [Sitophilus zeamais (Motschulsky)]; experiment: Maize weevil on dipped corn seeds (MW), 48 hours; details: percent in solution, adult weevils
In short: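 LC50, given as percent of compound in dipping solution, comes from dosage-mortality curves over concentrations descending from 0.01%. Four corn seeds soaked 2-3 s in 50:50 acetone:water solution were dried and held with 10 adult weevils, about 25° C, mortality read after 48 h.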

[6] = test system: Rice water weevil [Lissorhoptrus oryzophilus (Kuschel)]; experiment: Rice water weevil topical (RWW), 48 hours; details: μg of test compound per weevil, female adults
Method: The compounds in Tables 1 and 2 above were tested for insecticidal activity using the following testing procedures. LC50 values, based on the results of these tests and calculated according to dosage-mortality curves, are expressed in Table 3.
Rice water weevil [Lissorhoptrus oryzophilus (Kuschel)]:
Test compounds were diluted in acetone. Droplets (1 ul) of test solutions were applied to the ventral abdomens of ten female adult weevils. The treated weevils were placed in containers with wet cotton balls and rice foliage. The containers were covered and kept at a temperature of about 25° C. Mortality was recorded after 48 hours. Test concentrations ranged from […] down to that at which 50% mortality occurred. The LC50 values are expressed below in Table 3 under the heading "RWW" in terms of μg of test compound per weevil.

[7] = test system: Aster Leafhopper [Macrosteles fascifrens (Stal)]; experiment: Aster leafhopper on dipped oat seedlings (LH), 48 hours; details: percent in solution, adults/nymphs
In short: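 LC50 values, given as percent of test compound in the dip solution, were derived from dosage-mortality curves over concentrations from 0.05% downward. Mortality was counted 48 hours after ten leafhopper adults/nymphs were enclosed on treated seedlings. The seedlings were oats, about 10 cm tall, briefly dipped in 50-50 acetone-water.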

| SMILES | LC50 HF [1] | LC50 BBA [2] | LC50 TBW E (eggs) [3] | LC50 CL [4] | LC50 MW [5] | LC50 RWW [6] | LC50 LH [7] |
| --- | --- | --- | --- | --- | --- | --- | --- |
| CC(C)C(=Nc1ccc(C(F)(F)F)c(Br)c1)OCc1ccc(F)c(Oc2ccc(Cl)cc2)c1 [Compound 433] | < 100 µg | 0.0003% | 0.02% | 0.00017% | 0.005% | 0.078 µg |  |
| CCOc1ccc(N=C(OCc2ccc(F)c(Oc3ccc(Cl)cc3)c2)C(C)C)cc1Cl [Compound 369] | > 100 µg | 0.0003% | > 0.1% | 0.0016% | > 0.01% | > 2.5 µg |  |
| CC(C)C(=Nc1ccc(Br)cc1)OCc1ccc(F)c(Oc2ccc(Cl)cc2)c1 [Compound 378] | < 100 µg | 0.0008% | 0.02% | 0.00034% | > 0.01% | > 2.5 µg |  |
| CC(C)C(=Nc1ccc(F)c(Cl)c1)OCc1cccc(Oc2ccc(F)cc2)c1F [Compound 262] | 26 µg | 0.03% | > 0.1% | 0.0004% | 0.005% | > 2.5 µg |  |
| CC(C)C(=Nc1ccc(Br)c(Cl)c1)OCc1cccc(Oc2ccc(Cl)cc2)c1 [Compound 380] | > 100 µg | 0.004% | > 0.1% | > 0.1% | > 0.01% | > 2.5 µg |  |
| CC(C)C(=Nc1ccc(Cl)c(Cl)c1)OCc1ccc(F)c(Oc2ccc(F)cc2)c1 [Compound 289] | 10 µg | 0.0003% | 0.006% | 0.00007% | > 0.01% | 0.082 µg | 0.0003% |
| CCC(=Nc1ccc(F)c(Cl)c1)OCc1cccc(Oc2ccccc2)c1 [Compound 85] | 7 µg | 0.0017% | > 0.1% | 0.004% | > 0.01% | > 2.5 µg | 0.003% |
| CC(C)C(=Nc1cccc(F)c1)OCc1ccc(F)c(Oc2ccc(Cl)cc2)c1 [Compound 375] | 7.9 µg | 0.0006% | 0.04% | > 0.1% | > 0.01% | > 2.5 µg |  |
| CC(C)C(=Nc1c(F)c(F)c(F)c(F)c1F)OCc1cccc(Oc2ccc(F)cc2)c1 [Compound 198] | 52 µg |  | > 0.1% | 0.0005% | 0.003% | > 2.5 µg | 0.05% |
| CC(C)C(=Nc1ccc(Cl)c(OCC(F)(F)F)c1)OCc1ccc(F)c(Oc2ccc(Cl)cc2)c1 [Compound 452] | > 100 µg | 0.0003% | < 0.1% | 0.0017% | > 0.01% | 0.1 µg |  |
| CC(C)C(=Nc1ccc(Br)c(Cl)c1)OCc1ccc(F)c(Oc2ccc(Cl)cc2)c1 [Compound 381] | < 100 µg | 0.002% | 0.018% | 0.00092% | > 0.01% | > 2.5 µg |  |
| C=C(C)C(=Nc1ccc(C(F)(F)F)cc1)OCc1ccc(F)c(Oc2ccccc2)c1 [Compound 431] | 9.8 µg | 0.0003% | 0.025% | 0.00017% | 0.0037% | 0.084 µg |  |
| CC(C)C(=Nc1ccc(C(F)(F)F)c(Br)c1)OCc1ccc(F)c(Oc2ccc(Cl)cc2)c1 [Compound 377] | < 100 µg | 0.001% | > 0.1% | 0.00062% | > 0.01% | > 2.5 µg |  |
| CC(C)C(=Nc1ccc(Br)c(Cl)c1)OCc1ccc(F)c(Oc2ccc(F)cc2)c1 [Compound 382] | < 100 µg | 0.0003% | 0.027% | 0.00029% | > 0.01% | > 2.5 µg |  |
| CC(C)C(=Nc1cccc(Br)c1)OCc1ccc(F)c(Oc2ccccc2)c1 [Compound 387] | < 100 µg | 0.0006% | 0.05% | 0.0012% | > 0.01% | > 2.5 µg |  |
| CC(C)C(=Nc1ccc(Cl)c(Cl)c1)OCc1ccc(F)c(Oc2ccccc2)c1 [Compound 376] | 17 µg | 0.0003% | 0.02% | 0.00037% | 0.0061% | 0.1 µg |  |
| CCOc1ccc(N=C(OCc2ccc(F)c(Oc3ccccc3)c2)C(C)C)cc1Cl [Compound 370] | < 100 µg | 0.0002% | 0.02% | 0.00034% | > 0.01% | > 2.5 µg |  |
| CC(C)C(=Nc1ccc(Cl)cc1)OCc1ccc(F)c(Oc2ccc(Cl)cc2)c1 [Compound 391] | < 100 µg | 0.0006% | 0.035% | 0.00029% | > 0.01% | > 2.5 µg |  |
| CC(C)C(=Nc1ccc(F)c(Cl)c1)OCc1cccc(Oc2cccc(F)c2)c1 [Compound 125] | 12 µg | 0.05% | 0.025% | 0.0007% | > 0.01% | > 2.5 µg | > 0.05% |
| CC(C)C(=Nc1ccc(F)c(Cl)c1)OCc1cccc(Oc2ccc(F)cc2F)c1 [Compound 191] | 29 µg | 0.001% | 0.04% | 0.00023% | 0.004% | > 2.5 µg | > 0.05% |
| CC(C)C(=Nc1ccc(C(F)(F)F)cc1)OCc1cccc(Oc2ccccc2)c1 [Compound 68] | 37 µg | 0.0003% | 0.009% | 0.006% | > 0.01% | 0.15 µg | 0.0001% |
